Data from patent US20250059139A1, “COMPOUNDS FOR TREATMENT OF CANCER” (THE JOHNS HOPKINS UNIVERSITY, priority 2021, published 2025).
Where two headings read alike, the source gives them in different places.

Assays:
[1] = target: T1, Human Aryl Hydrocarbon Receptor (AHR) (Homo sapiens, UniProt P35869); assay: Human AHR reporter assay (cell-based  luciferase reporter gene assay)
T1 construct: purchased Indigo Biosciences IB06001
T1 sequence (P35869 11-848): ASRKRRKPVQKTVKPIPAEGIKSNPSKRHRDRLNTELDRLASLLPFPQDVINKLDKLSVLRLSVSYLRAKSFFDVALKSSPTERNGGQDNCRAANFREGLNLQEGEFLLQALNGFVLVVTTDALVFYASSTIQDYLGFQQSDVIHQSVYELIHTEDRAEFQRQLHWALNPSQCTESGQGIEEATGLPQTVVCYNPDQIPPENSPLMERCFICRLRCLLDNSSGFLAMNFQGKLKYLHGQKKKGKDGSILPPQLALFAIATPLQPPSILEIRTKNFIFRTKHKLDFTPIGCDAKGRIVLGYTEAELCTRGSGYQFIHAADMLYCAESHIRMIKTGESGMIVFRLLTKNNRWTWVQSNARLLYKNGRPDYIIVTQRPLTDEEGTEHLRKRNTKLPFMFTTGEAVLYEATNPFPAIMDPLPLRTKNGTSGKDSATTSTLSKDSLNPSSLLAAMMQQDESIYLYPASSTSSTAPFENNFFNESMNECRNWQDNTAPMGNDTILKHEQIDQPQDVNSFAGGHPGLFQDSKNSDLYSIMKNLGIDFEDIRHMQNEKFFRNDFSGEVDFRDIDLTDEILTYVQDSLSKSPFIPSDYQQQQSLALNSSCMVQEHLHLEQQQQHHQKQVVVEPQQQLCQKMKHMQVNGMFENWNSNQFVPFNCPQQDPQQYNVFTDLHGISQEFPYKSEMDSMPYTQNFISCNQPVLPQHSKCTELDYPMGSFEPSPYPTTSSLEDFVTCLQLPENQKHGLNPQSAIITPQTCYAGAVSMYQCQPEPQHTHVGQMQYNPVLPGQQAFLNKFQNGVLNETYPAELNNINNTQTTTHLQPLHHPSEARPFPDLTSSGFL
Text: AHR Agonist Assay. Human Aryl Hydrocarbon Receptor (AHR) Reporter Assay System [Indigo Biosciences (State College, Pa) Cat #IB06001] was used as per the manufacturer's protocol.
Thus, a series of quinoline-3-carboxamide analogs were synthesized focusing upon adduct changes at the aniline-N. These analogs were synthesized as described in Example 1, and were initially screened for their AHR agonist activity using the in vitro human cell-based ARE-driven luciferase reporter gene assay (Table 3).

mCRPC patients = settings: cited from earlier work
HUVEC = assay: mRNA expression of HUVEC in 3D-fibrin gels with HDF-conditioned media; format: cell-based, human; settings: Fibroblast Conditioned Media: Yes, TasQ (10 μM): Yes
Method: Three Dimensional (3D) Endothelial Sprouting Assay. The assay was performed using a minimum of 3 replicate wells of a 48 well tissue culture plate per drug dose per experiment, repeated 3 independent times in which human umbilical vein endothelial cells (HUVECs) obtained from Lonza Walkersville Inc (Walkersville, MD) attached to gelatin-coated dextran microcarrier bead are embedded in a fibrin matrix as described previously (Brennen et al. Oncotarget 7, 71298-71308 (2016)).
Besides its therapeutic effects on cancer cells, TasQ's anti-cancer efficacy also involves its dose-dependent anti-angiogenic activity (see, e.g., Isaacs 2006, Olsson 2010, Dalrymple 2012), Isaacs 2013, Isaacs 2014, Brennen 2016). To clarify the MoA for this anti-angiogenic activity, a 3-dimensional (3D) endothelial cell sprouting assay was used. In this assay, human umbilical vein endothelial cells (HUVECs) in basal media supplemented with VEGF, EGF, FGF, IGF1 and 2% FBS in standard 2D cultures are attached to collagen-coated beads embedded in a 3D-fibrin gel in the same growth factor-supplemented media. […] This lack of sprouting is associated with an upregulation in Mef-2c mRNA (Table 2) and protein (FIG. 38), and its target genes (Table 2) like Alpha 2 Macroglobulin (A2M). […] When the 3D-fibrin gels are further supplemented with conditioned media (CM) from human dermal fibroblasts (HDF) to provide additional angiogenic factors typically present within the TME A2M (Nakatsu et al. Microvasc Res 66, 102-112 (2003)), expression of the MEF-2c target genes, including A2M, is blocked (Table 2); enabling endothelial cell proliferation and invasion into the gels (i.e., “sprouting”); eventually forming canalized and anastomosing neovascular tubes within 7 days (FIG. 37). Importantly, 3D-sprouting occurs (FIG. 37), even when HIF-1α expression is KD in the HUVEC cells (FIG. 39).

fl-NCoR1 = target: T2, fl-NCoR1 (Homo sapiens, UniProt O75376); assay: SPR binding of TasQ to immobilized fl-NCoR1; settings: compound in solution
T2 construct: (N-terminal FLAG-tagged; AA 1-2440); FLAG (N); purchased Abcam ab82239
T2 sequence (O75376 whole entry, the tested form may be a part): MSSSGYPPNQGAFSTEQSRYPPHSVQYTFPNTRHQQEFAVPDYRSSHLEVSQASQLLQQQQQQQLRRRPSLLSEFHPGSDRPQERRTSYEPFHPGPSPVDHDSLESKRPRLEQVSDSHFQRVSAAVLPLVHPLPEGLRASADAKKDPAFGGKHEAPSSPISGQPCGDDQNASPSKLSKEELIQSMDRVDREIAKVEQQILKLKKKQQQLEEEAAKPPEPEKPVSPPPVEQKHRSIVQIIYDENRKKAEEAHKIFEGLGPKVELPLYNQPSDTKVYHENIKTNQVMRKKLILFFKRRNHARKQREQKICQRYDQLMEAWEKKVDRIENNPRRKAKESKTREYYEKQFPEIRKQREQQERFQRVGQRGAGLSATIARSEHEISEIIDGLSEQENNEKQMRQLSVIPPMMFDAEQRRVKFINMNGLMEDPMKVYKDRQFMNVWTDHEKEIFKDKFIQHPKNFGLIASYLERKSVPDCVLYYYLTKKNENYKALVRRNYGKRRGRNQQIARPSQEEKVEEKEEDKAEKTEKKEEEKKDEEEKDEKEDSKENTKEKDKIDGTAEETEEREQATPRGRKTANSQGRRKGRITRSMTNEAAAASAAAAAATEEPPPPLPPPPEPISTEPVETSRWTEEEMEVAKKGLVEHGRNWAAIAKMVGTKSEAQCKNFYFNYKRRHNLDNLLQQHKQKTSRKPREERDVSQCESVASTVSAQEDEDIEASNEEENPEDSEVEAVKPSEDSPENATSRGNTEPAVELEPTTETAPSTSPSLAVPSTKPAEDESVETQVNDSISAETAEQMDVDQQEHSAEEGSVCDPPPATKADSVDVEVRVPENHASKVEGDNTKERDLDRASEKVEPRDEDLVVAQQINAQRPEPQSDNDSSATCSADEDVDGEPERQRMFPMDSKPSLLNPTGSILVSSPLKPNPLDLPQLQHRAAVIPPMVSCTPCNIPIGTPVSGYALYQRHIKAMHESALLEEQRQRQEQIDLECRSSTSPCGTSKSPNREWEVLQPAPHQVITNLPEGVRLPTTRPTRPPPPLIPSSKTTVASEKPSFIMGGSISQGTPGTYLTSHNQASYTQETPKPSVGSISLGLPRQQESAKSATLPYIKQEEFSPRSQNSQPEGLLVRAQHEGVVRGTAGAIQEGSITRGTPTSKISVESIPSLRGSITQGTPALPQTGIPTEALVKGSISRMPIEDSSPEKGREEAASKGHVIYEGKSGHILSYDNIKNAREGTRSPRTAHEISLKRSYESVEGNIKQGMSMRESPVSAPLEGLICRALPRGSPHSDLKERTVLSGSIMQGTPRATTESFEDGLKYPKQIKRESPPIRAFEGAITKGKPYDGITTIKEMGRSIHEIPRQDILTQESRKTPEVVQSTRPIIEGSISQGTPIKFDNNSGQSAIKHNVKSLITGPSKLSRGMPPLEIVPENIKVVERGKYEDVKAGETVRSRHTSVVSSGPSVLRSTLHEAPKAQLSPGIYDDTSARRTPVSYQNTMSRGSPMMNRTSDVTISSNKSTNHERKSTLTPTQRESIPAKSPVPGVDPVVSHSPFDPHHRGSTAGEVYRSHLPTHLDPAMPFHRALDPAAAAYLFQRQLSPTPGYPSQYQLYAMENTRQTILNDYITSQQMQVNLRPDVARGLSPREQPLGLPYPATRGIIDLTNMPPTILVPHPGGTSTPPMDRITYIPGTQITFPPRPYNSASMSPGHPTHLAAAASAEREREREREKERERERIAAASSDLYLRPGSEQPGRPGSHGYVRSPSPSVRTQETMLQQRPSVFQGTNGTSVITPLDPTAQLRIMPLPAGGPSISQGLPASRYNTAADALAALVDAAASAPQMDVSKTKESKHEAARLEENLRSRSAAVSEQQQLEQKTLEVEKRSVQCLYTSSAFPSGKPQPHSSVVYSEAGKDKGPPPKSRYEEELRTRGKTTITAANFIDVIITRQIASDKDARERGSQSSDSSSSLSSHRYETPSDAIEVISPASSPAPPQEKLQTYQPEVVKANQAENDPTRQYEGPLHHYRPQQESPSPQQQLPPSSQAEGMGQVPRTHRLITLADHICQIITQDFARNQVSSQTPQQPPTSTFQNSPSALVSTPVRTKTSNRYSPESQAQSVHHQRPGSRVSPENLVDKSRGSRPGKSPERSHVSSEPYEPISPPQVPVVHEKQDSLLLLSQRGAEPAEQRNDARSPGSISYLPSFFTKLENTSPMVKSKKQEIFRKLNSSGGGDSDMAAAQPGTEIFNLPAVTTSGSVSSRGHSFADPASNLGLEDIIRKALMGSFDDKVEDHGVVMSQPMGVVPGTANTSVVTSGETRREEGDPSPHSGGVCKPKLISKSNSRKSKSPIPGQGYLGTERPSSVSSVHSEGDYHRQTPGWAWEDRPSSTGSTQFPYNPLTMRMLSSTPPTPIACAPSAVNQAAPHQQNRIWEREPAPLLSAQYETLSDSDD
Method: Surface Plasmon Resonance (SPR) Binding Analysis. SPR analysis was performed on the Biacore 3000™ system using CM5 sensor chips, certified buffers (HBS-P—10 mM HEPES, 0.15 M NaCl, pH 7.4, containing 0.005% v/v Surfactant P; HBS-EP-HBS-P with 3 mM EDTA) and reagents for immobilization and surface regeneration from Biacore, GE Healthcare, Uppsala Sweden. Evaluation of sensorgrams was performed using the BIA-evaluation Software version 4.1 and GraphPad Prism 4. Buffer of protein reagents were changed to HBS-P on Zeba spin desalting columns (Thermo Scientific) prior to being used in SPR analysis (Isaacs 2013).
B. Binding of TasQ to immobilized HDAC4 and NCoR1. Different variants of HDAC4 (full-length wild-type and mutant forms and the truncated protein) and full-length NCoR1 were immobilized on a CM5 chip using random amine coupling. Briefly, proteins were dissolved in 10 mM sodium acetate buffer at pH 5.0 or 5.5 and immobilized to the aimed level using the standard protocol from GE Healthcare. Serially diluted TasQ in HBS-P buffer with 10 or 20 μM Zn was injected (for 2 or 3 min at a flow rate of 30 μl/min) either directly or after a 1st injection of 1 mM DTT to reduce cysteines in the zinc conformation site in HDAC4. Regeneration was made with a short pulse of HBS-EP.
Thus, TasQ's inhibition of HDAC4/NCoR1 formation involves only its binding to HDAC4. […]

| Structure (SMILES) | EC50 ([1]; luciferase reporter gene assay, read-out: AHR agonist EC50) [nM] | EC50 ([1]; n = 4 independent assays/analog, read-out: AHR Agonist Response [EC50] (nM +/−SD)) [nM] | reduction of the risk of radiographic progression or death vs. placebo (mCRPC patients; Phase III, oral 1 mg/day, mCRPC patients on ADT) [%] | overall survival (mCRPC patients; Phase III, oral 1 mg/day) | Cmax (mCRPC patients; human, in vivo, 1 mg) [nM] | maximum tolerated dose (MTD) in humans (mCRPC patients; human, in vivo) [mg] | A2M Gene Expression (FPKM), Mef-2c Target Gene (HUVEC) [FPKM] | Adamt59 Gene Expression (FPKM), Mef-2c Target Gene (HUVEC) [FPKM] | Apinr Gene Expression (FPKM), Mef-2c Target Gene (HUVEC) [FPKM] | Ets1 Gene Expression (FPKM) (HUVEC) | Ets2 Gene Expression (FPKM) (HUVEC) | KDR (VEGFR2) Gene Expression (FPKM), Ets Target Gene (HUVEC) [FPKM] | LI1 (VEGFR1) Gene Expression (FPKM), Ets Target Gene (HUVEC) | Mef-2c Target Gene Expression, Gene Expression (FPKM) (HUVEC) | NR4A1 Gene Expression (FPKM), Mef-2c Target Gene (HUVEC) | NR4A2 Gene Expression (FPKM), Mef-2c Target Gene (HUVEC) [FPKM] | SerpinB1 Gene Expression (FPKM), Mef-2c Target Gene (HUVEC) | Spry Gene Expression (FPKM), Mef-2c Target Gene (HUVEC) | Stc1 Gene Expression (FPKM), Mef-2c Target Gene (HUVEC) | binding to immobilized fl-NCoR1 protein (fl-NCoR1) |
| --- | --- | --- | --- | --- | --- | --- | --- | --- | --- | --- | --- | --- | --- | --- | --- | --- | --- | --- | --- | --- |
| COc1cccc2c1c(O)c(C(=O)N(c1ccc(C(F)(F)F)cc1)C1CCCCC1)c(=O)n2C [ESATA-20] | 10000 | 10200 |  |  |  |  |  |  |  |  |  |  |  |  |  |  |  |  |  |  |
| COc1cccc2c1c(O)c(C(=O)N(C)c1ccc(C(F)(F)F)cc1)c(=O)n2C [TasQ, Tasquinimod] |  |  | 36 | not enhanced | ~500 | 1 | 257 | 89.2 | 81.1 | 73 | 45.2 | 99.3 | 106,830 FPKM | 21,217 FPKM | 1,598 FPKM | 297 | 4,926 FPKM | 11,728 FPKM | 18,619 FPKM | no detectable binding |
